The source of these data is article PMC7155171, “Probing the Open Global Health Chemical Diversity Library for Multistage-Active Starting Points for Next-Generation Antimalarials” (ACS Infectious Diseases, 2020).

Bounds are passed on as bounds.

In series [1] the test system is P. berghei liver stage (PbLuc). In words: P. berghei luciferase liver stage (PbLuc) assay in HepG2-A16-CD81 hepatocytes. Format: cell-based, Plasmodium berghei. As to conditions: Plasmodium berghei; for IC50: HepG2-A16-CD81, 12pt dose response, read-out: PbLuc 12pt dose response: IC50; for Emax: HepG2-A16-CD81, 48 h, 12pt dose response, maximum inhibition.
For series [2], the target named is recombinant firefly luciferase (Photinus pyralis, UniProt P08659). In words: biochemical. Conditions: dose response; for Emax: maximum inhibition, read-out: rLuc inhibition dose response: Maximum inhibition (%); for IC50: read-out: rLuc inhibition dose response: IC50.
Sequence of recombinant firefly luciferase (P08659 whole entry): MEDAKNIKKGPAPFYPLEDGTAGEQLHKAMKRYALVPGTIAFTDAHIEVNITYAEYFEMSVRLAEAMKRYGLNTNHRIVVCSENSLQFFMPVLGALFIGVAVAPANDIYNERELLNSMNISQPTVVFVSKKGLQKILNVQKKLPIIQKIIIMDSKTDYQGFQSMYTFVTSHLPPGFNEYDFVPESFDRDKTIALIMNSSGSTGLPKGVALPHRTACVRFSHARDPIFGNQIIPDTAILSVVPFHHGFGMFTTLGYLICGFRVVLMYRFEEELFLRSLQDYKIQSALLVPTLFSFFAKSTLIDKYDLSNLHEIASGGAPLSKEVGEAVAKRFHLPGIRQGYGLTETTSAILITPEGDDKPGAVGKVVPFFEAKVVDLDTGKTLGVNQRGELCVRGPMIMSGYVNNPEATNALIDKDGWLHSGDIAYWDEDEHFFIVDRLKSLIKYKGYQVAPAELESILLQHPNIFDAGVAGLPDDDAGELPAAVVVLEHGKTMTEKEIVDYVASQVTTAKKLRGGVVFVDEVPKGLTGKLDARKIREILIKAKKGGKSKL
The subject of series [3] is HepG2-A16-CD81 hepatocytes. In words: HepG2 cytotoxicity screening (CellTiter-Glo). Conditions: for HepG2 cytotoxicity 12pt dose response: Maximum inhibition (%): 12pt dose response.
The nature of series [4]: HepG2 cytotoxicity screening (CellTiter-Glo). As to conditions: human, uninfected HepG2-A16-CD81 (EGFP) hepatocytes.

Turning to `COC1CCN(c2ccc(NC(=O)C3CC3)cc2C(F)(F)F)CC1` [UCSD-0582177], in series [1], the half-maximal inhibitory concentration (IC50) was determined as 14.7 µM and the Emax was 87.5%. In addition, in series [2], the Emax was found to be 16.4% and the IC50 was over 25 µM. Further, in series [3], the “HepG2 Cytotoxicity primary screen (2uM): % Inhibition” value is given as 12.40% and the “HepG2 cytotoxicity 12pt dose response: Maximum inhibition (%)” value is given as 23%. The compound also registered an IC50 in series [4] of over 25 µM.
`CCc1cccc(N2CCC(NC(=O)c3ccco3)CC2)c1` [UCSD-0587427]: in series [1], the IC50 was found to be 11.1 µM and the Emax came to 87.3%. In series [2], the Emax stood at 11.1% and the IC50 was over 25 µM. Further, in series [3], the “HepG2 Cytotoxicity primary screen (2uM): % Inhibition” value is 4.14% and the “HepG2 cytotoxicity 12pt dose response: Maximum inhibition (%)” value was 3.68%. In series [4], the IC50 was over 25 µM.
On to `Cn1cnc2c1CCN(Cc1csc(-c3ccccc3F)n1)C2` [UCSD-0598805], for which the IC50 was under 0.000141 µM in series [1], 15 µM in series [2] and over 25 µM in series [4]. For the same compound, the Emax was 84.3% in series [1] and 81.2% in series [2]. Moreover, in series [3], the “HepG2 cytotoxicity 12pt dose response: Maximum inhibition (%)” value is reported as 6.01%. For the same compound, the inhibition at 2 µM in series [4] came out at 0.19%.
Take `COc1cccc(CN2CCN(c3ccc4nncn4n3)C(C)C2)c1` (stereo not drawn) [UCSD-0601459]: in series [1], the IC50 was determined as 12.6 µM and the Emax is 92.1%. In addition, in series [2], the Emax worked out at 0.876% and the IC50 is over 25 µM. For the same compound, in series [3], the “HepG2 Cytotoxicity primary screen (2uM): % Inhibition” value is given as -7.20% and the “HepG2 cytotoxicity 12pt dose response: Maximum inhibition (%)” value was 49.9%. In addition, in series [4], the IC50 is over 25 µM.
In the case of `COC(=O)c1sc(NCc2ccc(N3CCC(O)CC3)c(F)c2)nc1Cl` [UCSD-0616240], the values for the IC50 in series [1], in series [2] and in series [4] were 12.5 µM, over 25 µM and 17.7 µM, respectively. Also, the Emax stood at 87.4% in series [1] and 26.9% in series [2]. In addition, in series [3], the “HepG2 Cytotoxicity primary screen (2uM): % Inhibition” value amounted to 5.85%. Also, the “HepG2 cytotoxicity 12pt dose response: Maximum inhibition (%)” value in series [3] worked out at 58.9%.
`CCc1nc(CN2CCCN(c3ncnc4ccccc34)CC2)no1` [UCSD-0620461]: in series [1], the IC50 amounted to 0.691 µM and the Emax was found to be 96.1%. Moreover, in series [2], the Emax turned out to be 3.79% and the IC50 was over 50 µM. Also, the “HepG2 cytotoxicity 12pt dose response: Maximum inhibition (%)” value in series [3] is recorded as 60.2%. In series [4], the IC50 is over 1.85 µM and the inhibition at 2 µM was 6.37%.
For the compound `COc1cccc(CNc2cc(C)nc(-c3ccncc3)n2)c1OC` [UCSD-0704521], in series [1], the IC50 came out at 4.43 µM and the Emax is 104%. For the same compound, in series [2], the Emax stood at 11.7% and the IC50 was over 25 µM. Moreover, in series [3], the “HepG2 Cytotoxicity primary screen (2uM): % Inhibition” value is reported as -4.44% and the “HepG2 cytotoxicity 12pt dose response: Maximum inhibition (%)” value amounted to 80.5%. In series [4], this compound came in with an IC50 of 9.86 µM.
Take `CC(C)Cc1ccc(S(=O)(=O)Nc2ccc(=O)n(C)c2)cc1` [UCSD-0710590]: the values for the IC50 in series [1], in series [2] and in series [4] were 0.0472 µM, over 25 µM and over 0.31 µM, respectively. Besides, the Emax was 91.6% in series [1] and 7.28% in series [2]. Moreover, the “HepG2 cytotoxicity 12pt dose response: Maximum inhibition (%)” value in series [3] was found to be 60.9%. For the same compound, the inhibition at 2 µM in series [4] stood at 3.02%.
As for `Cn1cc(NS(=O)(=O)c2ccc(OC(F)(F)F)cc2)ccc1=O` [UCSD-0710715], the IC50 is 13.1 µM in series [1], over 25 µM in series [2] and over 25 µM in series [4]. In addition, the Emax is 69.6% in series [1] and 16.1% in series [2]. In addition, the “HepG2 Cytotoxicity primary screen (2uM): % Inhibition” value in series [3] is on record as -4.65%.
With `COc1c(CNCc2ccc(C(=O)N(C)C(C)C)cc2)c(C)nn1C` [UCSD-0723791], the IC50 in series [1] was 2.49 µM; in series [2], over 25 µM; in series [4], 16.6 µM. Besides, the Emax was 86.3% in series [1] and -4.69% in series [2]. Further, in series [3], the “HepG2 cytotoxicity 12pt dose response: Maximum inhibition (%)” value worked out at 53.2%. Moreover, the inhibition at 2 µM in series [4] came to 0.82%.
With `O=C(Nc1ccc(Cl)cn1)c1nn(C2CCS(=O)(=O)C2)c2c1CCCC2` (stereo not drawn) [UCSD-0749819], the IC50 in series [1], in series [2] and in series [4] was over 25 µM throughout. Moreover, the Emax in series [1] is 60%; in series [2], 2.39%. For the same compound, the “HepG2 cytotoxicity 12pt dose response: Maximum inhibition (%)” value in series [3] is on record as -0.0195%. Further, in series [4], the inhibition at 2 µM is -5.58%.
Regarding `Cc1cnc(NC(=O)c2csc(NC3CCCC3)n2)s1` [UCSD-0752486], the IC50 in series [1] is 8.33 µM; in series [2], 24.8 µM; in series [4], over 25 µM. Further, the Emax in series [1] was 93.6%; in series [2], 65.8%. The “HepG2 cytotoxicity 12pt dose response: Maximum inhibition (%)” value in series [3] is reported as 48.7%.
As to `Cc1[nH]/c(=N\C(=O)c2csc(NC3CCCC3)n2)sc1C` [UCSD-0752597], the IC50 was 0.832 µM in series [1], 44.4 µM in series [2] and 11 µM in series [4]. For the same compound, the Emax in series [1] stood at 121%; in series [2], 92.3%. In series [3], the “HepG2 cytotoxicity 12pt dose response: Maximum inhibition (%)” value came out at 87.9%. Moreover, the inhibition at 2 µM in series [4] was 8%.
With `O=C(NC1CCCC1)O[C@H]1COCCN(c2nc3ccccc3s2)C1` [UCSD-0785020], in series [1], the IC50 worked out at 6.66 µM and the Emax turned out to be 88.1%. Moreover, in series [2], the Emax was found to be 16.5% and the IC50 was over 25 µM. Also, the “HepG2 cytotoxicity 12pt dose response: Maximum inhibition (%)” value in series [3] is -1.51%. Also, in series [4], the IC50 was over 25 µM and the inhibition at 2 µM was 0.48%.
On to `CCS(=O)(=O)N1CCc2ccc(NC(=O)Nc3cccc(C)c3)cc21` [UCSD-0785768], for which, in series [1], the IC50 stood at 3.66 µM and the Emax was 77.6%. For the same compound, in series [2], the Emax turned out to be 36.5% and the IC50 is over 50 µM. In series [3], the “HepG2 cytotoxicity 12pt dose response: Maximum inhibition (%)” value was 52.3%. For the same compound, in series [4], the IC50 is over 16.6 µM and the inhibition at 2 µM stood at 27.5%.
With `CCS(=O)(=O)N1CCc2ccc(NC(=O)Nc3cccc(F)c3)cc21` [UCSD-0785772], in series [1], the IC50 stood at 9.31 µM and the Emax came out at 90.3%. Also, in series [2], the Emax worked out at 22.1% and the IC50 is over 25 µM. The “HepG2 cytotoxicity 12pt dose response: Maximum inhibition (%)” value in series [3] is given as 50.2%. Further, in series [4], the IC50 was 17.8 µM and the inhibition at 2 µM was 17.6%.
With `Cc1nc(NC(=O)c2c(-n3cnnn3)sc3c2CCCC3)sc1C` [UCSD-0786506], in series [1], the IC50 was 0.253 µM and the Emax is 88.6%. In series [2], the Emax was found to be 15% and the IC50 is over 50 µM. Besides, the “HepG2 cytotoxicity 12pt dose response: Maximum inhibition (%)” value in series [3] was determined as 4.09%. Further, in series [4], the IC50 is over 50 µM and the inhibition at 2 µM was determined as 10.9%.
On to `Cc1nc(NC(=O)c2c(-n3cnnn3)sc(C)c2C)sc1C` [UCSD-0786548], for which the IC50 in series [1] came to 0.0144 µM. Besides, in series [2], the Emax was determined as 1.63% and the IC50 was over 25 µM. Besides, the “HepG2 cytotoxicity 12pt dose response: Maximum inhibition (%)” value in series [3] amounted to 8.84%. For the same compound, in series [4], the IC50 is over 25 µM and the inhibition at 2 µM is 4.63%.
On to `CC(C)Cn1ccc2c(NC(=O)c3n[nH]c4c3CCC4)cccc21` [UCSD-0786893], for which the IC50 is 13.6 µM in series [1], over 25 µM in series [2] and over 25 µM in series [4]. Also, the Emax in series [2] stood at 38.5%. Also, in series [3], the “HepG2 Cytotoxicity primary screen (2uM): % Inhibition” value was 3.16%. Moreover, the “HepG2 cytotoxicity 12pt dose response: Maximum inhibition (%)” value in series [3] was 32.3%.
